# Assay results as given in ChEMBL document CHEMBL4765304, “Synthesis and anticancer activity of thiourea derivatives bearing a benzodioxole moiety with EGFR inhibitory activity, apoptosis assay and molecular docking study” (Eur J Med Chem, 2020).
# How the values were obtained:
# [1] = test system: MCF7; assay: cells; settings: Homo sapiens
# Description: Cytotoxicity against human MCF7 cells assessed as reduction in cell viability by SRB assay
# [2] = test system: HepG2; assay: Induction of apoptosis in human HepG2 cells assessed as necrotic cells at 5 uM incubated for 24 hrs by annexin V-FITC and PI staining based flow cytometry analysis (reference value: 0.43 %); assay type: functional
# [3] = test system: HepG2; assay: Induction of apoptosis in human HepG2 cells assessed as late apoptotic cells at 5 uM incubated for 24 hrs by annexin V-FITC and PI staining based flow cytometry analysis (reference value: 0.56 %); assay type: functional
# [4] = biological target: Epidermal growth factor receptor (Homo sapiens, UniProt P00533); assay: Inhibition of EGFR (unknown origin) by FRET assay
# [5] = test system: HCT-116; assay: Cytotoxicity against human HCT-116 cells assessed as reduction in cell viability by SRB assay; assay type: functional, cell-based
# [6] = test system: HepG2; assay: Induction of apoptosis in human HepG2 cells assessed as Bax level (reference value: 27.35 pg/ml); assay type: functional
# [7] = test system: HepG2; assay: Induction of cell cycle arrest in human HepG2 cells assessed as G2/M phase accumulation by flow cytometry analysis (reference value: 6.32 %); assay type: functional
# [8] = test system: HepG2; assay: Induction of apoptosis in human HepG2 cells assessed as Bcl2 level (reference value: 6.639 pg/ml); assay type: functional
# [9] = test system: HepG2; assay: Induction of cell cycle arrest in human HepG2 cells assessed as G0/G1 phase accumulation by flow cytometry analysis (reference value: 57.36 %); assay type: functional
# [10] = test system: HepG2; assay: Induction of cell cycle arrest in human HepG2 cells assessed as S phase accumulation by flow cytometry analysis (reference value: 36.22 %); assay type: functional
# [11] = test system: HepG2; assay: Induction of apoptosis in human HepG2 cells at 5 uM incubated for 24 hrs by annexin V-FITC and PI staining based flow cytometry analysis (reference value: 1.86 %); assay type: functional
# [12] = test system: HepG2; assay: Induction of apoptosis in human HepG2 cells assessed as early apoptotic cells at 5 uM incubated for 24 hrs by annexin V-FITC and PI staining based flow cytometry analysis (reference value: 0.87 %); assay type: functional
# [13] = test system: HepG2; assay: Cytotoxicity against human HepG2 cells assessed as reduction in cell viability by SRB assay; assay type: functional, cell-based
# [14] = test system: WI-38; assay: Cytotoxicity against human WI-38 cells assessed as reduction in cell viability by SRB assay; assay type: cell-based
# [15] = test system: HepG2; assay: Induction of cell cycle arrest in human HepG2 cells assessed as preG1 phase accumulation by flow cytometry analysis (reference value: 1.86 %); assay type: functional
# Sequence of Epidermal growth factor receptor (P00533 whole entry): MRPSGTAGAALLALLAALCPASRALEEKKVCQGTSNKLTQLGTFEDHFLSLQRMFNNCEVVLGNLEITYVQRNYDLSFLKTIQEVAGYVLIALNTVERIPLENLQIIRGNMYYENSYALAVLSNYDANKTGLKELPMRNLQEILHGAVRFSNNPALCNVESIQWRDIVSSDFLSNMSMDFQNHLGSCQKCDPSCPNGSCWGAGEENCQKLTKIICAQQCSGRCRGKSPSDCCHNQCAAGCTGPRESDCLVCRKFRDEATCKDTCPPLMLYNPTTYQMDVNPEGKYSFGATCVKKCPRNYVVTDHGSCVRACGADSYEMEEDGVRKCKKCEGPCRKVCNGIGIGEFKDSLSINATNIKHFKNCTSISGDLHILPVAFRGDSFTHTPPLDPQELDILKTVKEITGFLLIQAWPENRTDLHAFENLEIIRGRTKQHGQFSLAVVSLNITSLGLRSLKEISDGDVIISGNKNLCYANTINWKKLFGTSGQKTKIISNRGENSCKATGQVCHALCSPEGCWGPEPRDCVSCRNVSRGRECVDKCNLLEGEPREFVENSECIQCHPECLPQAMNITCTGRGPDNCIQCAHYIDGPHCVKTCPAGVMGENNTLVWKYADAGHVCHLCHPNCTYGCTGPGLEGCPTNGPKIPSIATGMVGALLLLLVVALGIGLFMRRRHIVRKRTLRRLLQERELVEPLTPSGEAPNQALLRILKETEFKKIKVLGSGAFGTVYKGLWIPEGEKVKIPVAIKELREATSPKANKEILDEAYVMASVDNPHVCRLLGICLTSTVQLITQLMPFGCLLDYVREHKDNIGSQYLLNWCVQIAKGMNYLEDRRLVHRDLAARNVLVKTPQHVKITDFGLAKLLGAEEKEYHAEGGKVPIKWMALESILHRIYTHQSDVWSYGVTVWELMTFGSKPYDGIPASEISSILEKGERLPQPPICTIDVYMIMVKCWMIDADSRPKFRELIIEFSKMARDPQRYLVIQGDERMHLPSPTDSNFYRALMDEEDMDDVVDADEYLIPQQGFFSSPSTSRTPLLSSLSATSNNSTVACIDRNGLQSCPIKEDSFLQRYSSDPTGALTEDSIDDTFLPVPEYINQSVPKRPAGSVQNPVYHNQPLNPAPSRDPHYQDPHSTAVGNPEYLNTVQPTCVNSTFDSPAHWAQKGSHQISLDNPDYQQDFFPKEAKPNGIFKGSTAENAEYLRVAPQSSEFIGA
IC50 [1] [µM],IC50 [4] [µM],Compound,Activity [2] [%],Activity [3] [%],IC50 [5] [µM],Activity [6] [pg/mL],Activity [7] [%],Activity [8] [pg/mL],Activity [9] [%],Activity [10] [%],Activity [11] [%],Activity [12] [%],IC50 [13] [µM],IC50 [14] [µM],Activity [15] [%]
4.63,0.493,S=C(Nc1ccc2c(c1)OCO2)Nc1c2ccccc2nc2ccccc12,2.43,8.68,1.71,201.7,37.36,4.147,37.12,25.52,17.25,6.14,2.14,227,17.25
103,,NS(=O)(=O)c1ccc(NC(=S)Nc2ccc3c(c2)OCO3)cc1,,,86.3,,,,,,,,95.7,325,
7,8.26,S=C(NNc1ccccc1)Nc1ccc2c(c1)OCO2,,,1.11,,,,,,,,1.74,271,
11.7,1.62,O=S(=O)(Nc1nccs1)c1ccc(NC(=S)Nc2ccc3c(c2)OCO3)cc1,,,2.53,,,,,,,,2.99,201,
13.4,1.89,O=S(=O)(Nc1ccccn1)c1ccc(NC(=S)Nc2ccc3c(c2)OCO3)cc1,,,4.78,,,,,,,,7.03,189,
160,,N=C(N)NS(=O)(=O)c1ccc(NC(=S)Nc2ccc3c(c2)OCO3)cc1,,,127,,,,,,,,132,364,
17,0.358,Cc1c(NC(=S)Nc2ccc3c(c2)OCO3)c(=O)n(-c2ccccc2)n1C,2.53,10.62,3.16,215.8,40.64,3.374,29.15,30.21,20.43,7.28,3.79,176,20.43
179,,O=C(c1ccccc1)c1ccccc1NC(=S)Nc1ccc2c(c1)OCO2,,,171,,,,,,,,167,435,
10.8,0.993,S=C(NN=C(c1ccccc1)c1ccccc1)Nc1ccc2c(c1)OCO2,,,2.4,,,,,,,,5.76,192,
17.6,,O=S(=O)(NNC(=S)Nc1ccc2c(c1)OCO2)c1ccccc1,,,10,,,,,,,,11.7,207,
68.9,,O=C1c2ccccc2C(=O)N1NC(=S)Nc1ccc2c(c1)OCO2,,,55.4,,,,,,,,59.1,287,
25.2,,O=C(NNC(=S)Nc1ccc2c(c1)OCO2)c1ccncc1,,,5.63,,,,,,,,11.6,184,
